pEC50, pIC50: −log10 of the molar value.

One assay addresses BTK (Homo sapiens (Human), UniProt Q06187). Kind of assay: Invitrogen Select Screening kinase assay. It is filed as biochemical. The note with it: in vitro. An excerpt:
The in vitro activity of the compounds described herein in inhibiting TAK1, HCK, and other kinases were obtained using an Invitrogen Select Screening assay as known in the art. The IC50 values determined from this assay are shown below.

The test system of another assay is BCWM.1. Kind of assay: CellTiter-Glo cell viability assay. It counts as cell-based. As for the experimental part: (§1) CellTiter-Glo® Luminescent cell viability assay (Promega) was used to assess cell survival following treatment with the compounds described. Cells were seeded into 384 well plates with the EL406 Combination Washer Dispenser (BioTek Instruments, Inc.), and the compounds were injected into the cells culture media with the JANUS Automated Workstation (PerkinElmer Inc.). Cells were treated with a series diluted inhibitors (20˜0.04 μM) for 72 hours at 37° C. Luminescent measurement is performed using the 2104 Envision® Multilabel Reader (PerkinElmer Inc.).
On the technique in general: Cellular ATP, detected with luciferase, serves as a proxy for viable cell number.

The subject of another assay is MWCL-1. Put plainly: CellTiter-Glo cell viability assay. It is filed as cell-based. As for the experimental part: as §1
The next assay has as its system OCI-Ly19. Kind of assay: CellTiter-Glo cell viability assay. It is filed as cell-based. As to conditions: Homo sapiens, 72 hours. On the procedure:
as §1

For another assay, the system named is OCI-Ly3. Put plainly: CellTiter-Glo cell viability assay. It counts as cell-based. On the procedure: as §1
The next assay concerns Ramos. Kind of assay: CellTiter-Glo cell viability assay. It is filed as cell-based. The note with it: 72 hours. On the procedure:
as §1

A further assay has as its system RPCIWM-1. Put plainly: CellTiter-Glo cell viability assay. It counts as cell-based. The note with it: 72 hours. As for the experimental part: as §1
The target in another assay is HCK (Homo sapiens (Human), UniProt P08631). Put plainly: Invitrogen Select Screening kinase assay. The note with it: in vitro, read-out: HCK IC50 (nM) Inv. It is filed as biochemical.
Sequence of HCK (P08631 whole entry): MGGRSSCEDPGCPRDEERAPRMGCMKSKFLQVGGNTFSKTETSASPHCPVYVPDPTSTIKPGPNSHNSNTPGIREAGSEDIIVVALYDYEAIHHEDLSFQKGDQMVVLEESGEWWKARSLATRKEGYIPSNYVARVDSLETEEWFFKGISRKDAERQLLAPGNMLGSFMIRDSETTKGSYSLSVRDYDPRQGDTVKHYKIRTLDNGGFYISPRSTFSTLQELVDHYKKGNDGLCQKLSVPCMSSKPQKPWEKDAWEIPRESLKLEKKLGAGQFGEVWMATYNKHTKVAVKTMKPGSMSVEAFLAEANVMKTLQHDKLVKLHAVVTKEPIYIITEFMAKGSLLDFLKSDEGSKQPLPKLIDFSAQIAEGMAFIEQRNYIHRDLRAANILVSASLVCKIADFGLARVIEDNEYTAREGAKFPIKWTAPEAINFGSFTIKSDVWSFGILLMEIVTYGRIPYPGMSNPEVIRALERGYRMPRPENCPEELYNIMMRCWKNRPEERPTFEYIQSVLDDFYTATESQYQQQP

Sequence of BTK (Q06187 whole entry): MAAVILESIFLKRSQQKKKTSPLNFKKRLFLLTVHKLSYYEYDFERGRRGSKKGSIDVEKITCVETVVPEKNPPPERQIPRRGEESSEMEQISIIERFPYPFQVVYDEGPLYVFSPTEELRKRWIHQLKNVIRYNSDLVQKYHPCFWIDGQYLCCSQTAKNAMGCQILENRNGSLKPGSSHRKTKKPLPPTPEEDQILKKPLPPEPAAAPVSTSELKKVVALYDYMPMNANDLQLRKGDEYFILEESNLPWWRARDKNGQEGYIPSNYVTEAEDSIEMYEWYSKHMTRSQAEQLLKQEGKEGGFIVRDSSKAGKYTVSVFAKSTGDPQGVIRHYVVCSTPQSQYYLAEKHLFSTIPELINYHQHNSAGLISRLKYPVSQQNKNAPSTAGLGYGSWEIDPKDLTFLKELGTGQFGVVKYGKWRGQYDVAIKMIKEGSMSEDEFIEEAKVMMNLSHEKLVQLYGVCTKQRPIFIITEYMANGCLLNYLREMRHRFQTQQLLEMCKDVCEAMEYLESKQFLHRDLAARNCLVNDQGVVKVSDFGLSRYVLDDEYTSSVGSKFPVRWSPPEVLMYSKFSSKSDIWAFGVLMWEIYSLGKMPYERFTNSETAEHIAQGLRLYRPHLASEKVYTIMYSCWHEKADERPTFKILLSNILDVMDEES

Regarding `CCN1CCN(Cc2ccc(C(=O)Nc3ccc(C)c(NC(=O)c4cncc(-c5cccs5)c4)c3)cc2C(F)(F)F)CC1` [I-1, N-(5-(4-((4-ethylpiperazin-1-yl)methyl)-3-(trifluoromethyl)benzamido)-2-methylphenyl)-5-(thiophen-2-yl)nicotinamide], at BTK, the negative logarithm of the IC50 (pIC50) (as a rule, the negative decadic logarithm of the IC50, by convention in mol/L) is 7.64. The pEC50 (usually −log10 of the EC50, conventionally taken in molar units) with BCWM.1 (BCWM1, 72 h) is 7.42; in the assay with MWCL-1 (72 h), 6.34; in the assay on OCI-Ly19, 6.26; in the assay on OCI-Ly3 (Homo sapiens, OCI-Ly3, 72 h) it was 5.54; in the assay on Ramos (Homo sapiens, Ramos), 5.38.
In turn, `Cc1cn(-c2cc(NC(=O)c3ccc(C)c(NC(=O)c4cncc(-c5cccs5)c4)c3)cc(C(F)(F)F)c2)cn1` [I-3, N-(2-methyl-5-((3-(4-methyl-1H-imidazol-1-yl)-5-(trifluoromethyl)phenyl)carbamoyl)phenyl)-5-(thiophen-2-yl)nicotinamide] showed a negative-log IC50 (pIC50) against BTK of 6.71. In addition, the pEC50 was 6.85 in the assay with BCWM.1 (BCWM1, 72 h); 6.45 in the assay with MWCL-1 (72 h); 6.29 in the assay with OCI-Ly19; 6.39 in the assay on OCI-Ly3 (Homo sapiens, OCI-Ly3, 72 h); 6.14 in the assay with RPCIWM-1; 6.26 in the assay on Ramos (Homo sapiens, Ramos).
`Cc1ccc(C(=O)Nc2cc(N3CCN(C)CC3)cc(C(F)(F)F)c2)cc1NC(=O)c1cncc(-c2cccs2)c1` [I-4, N-(2-methyl-5-((3-(4-methylpiperazin-1-yl)-5-(trifluoromethyl)phenyl)carbamoyl)phenyl)-5-(thiophen-2-yl)nicotinamide] showed a negative-log IC50 (pIC50) at BTK of 6.34.
For the molecule `CCN1CCN(c2ccc(NC(=O)c3ccc(C)c(NC(=O)c4cncc(-c5cccs5)c4)c3)cc2C(F)(F)F)CC1` [I-5, N-(5-((4-(4-ethylpiperazin-1-yl)-3-(trifluoromethyl)phenyl)carbamoyl)-2-methylphenyl)-5-(thiophen-2-yl)nicotinamide], at BTK, the pIC50 is 5.41. In addition, the pEC50 with BCWM.1 (BCWM1, 72 h) was 6.44; in the assay with MWCL-1 (72 h), 5.96; with OCI-Ly19, 5.81; in the assay with OCI-Ly3 (Homo sapiens, OCI-Ly3, 72 h), 5.67; in the assay with RPCIWM-1 it was 10.70; with Ramos (Homo sapiens, Ramos), 6.00.
For `Cc1ccc(C(=O)Nc2cc(N3CCOCC3)cc(N3CCOCC3)c2)cc1NC(=O)c1cncc(-c2cccs2)c1` [I-7, N-(5-((3,5-dimorpholinophenyl)carbamoyl)-2-methylphenyl)-5-(thiophen-2-yl)nicotinamide], on BTK, the negative-log IC50 (pIC50) was 5.47. Moreover, the pEC50 was 6.74 with BCWM.1 (BCWM1, 72 h); 5.75 in the assay on MWCL-1 (72 h); 5.53 with OCI-Ly19; 5.45 in the assay with OCI-Ly3 (Homo sapiens, OCI-Ly3, 72 h); 5.32 in the assay with RPCIWM-1; 5.62 in the assay with Ramos (Homo sapiens, Ramos).
`CCN1CCN(Cc2ccc(NC(=O)c3ccc(C)c(NC(=O)c4cncc(-c5cnoc5)c4)c3)cc2C(F)(F)F)CC1` [I-8] showed a pIC50 on BTK of 7.16. Further, the IC50 – broadly, the concentration at which inhibition is half-maximal – at HCK was 5.33 nM.
For the molecule `CCN1CCN(Cc2ccc(NC(=O)c3ccc(C)c(NC(=O)c4cncc(-c5cnn(C)c5)c4)c3)cc2C(F)(F)F)CC1` [I-9], the negative-log IC50 (pIC50) on BTK is 7.60. Further, the IC50 at HCK came to 2.43 nM.
As to “N-(2-chloro-5-((4-((4- ethylpiperazin-1-yl)methyl)- 3-(trifluoromethyl)phenyl) carbamoyl)phenyl)-5- (thiophen-2-yl)nicotinamide [I-2]”, the negative-log EC50 (pEC50) is 7.92 in the assay on BCWM.1 (72 hours); 7.80 with MWCL-1 (72 hours); 6.79 in the assay with OCI-Ly3 (72 hours); 6.96 with RPCIWM-1; 7.22 in the assay with Ramos.

The values above are taken from patent US10597387B2, “Methods to treat lymphoplasmacytic lymphoma” (Dana-Farber Cancer Institute, Inc., priority 2013, dated 2020).
